The record followed here is paper PMC6361752, “Construction of a Quantitative Structure Activity Relationship (QSAR) Model to Predict the Absorption of Cephalosporins in Zebrafish for Toxicity Study” (Frontiers in Pharmacology, 2019).

Each structure is given as a SMILES string.

This series has as its system Zebrafish wild-type (WT) embryos. Put plainly: Absorption (internal concentration) of cephalosporins in zebrafish embryos by LC-MS/MS. As to conditions: 6 hpf-3 dpf; for k-value (slope of the dose-internal concentration linear regression): zebrafish embryos, 0.28, 1.0 and 2.0 mM, higher k = more readily absorbed. The procedure:
Zebrafish (Danio rerio) were fed at the Institute of Medicinal Biotechnology, Beijing Union Medical College, Beijing, China. […] Zebrafish wild-type (WT) embryos (n = 30) at 6 h post-fertilization (6 hpf) were used. After immersing the embryos in 2 mL of each drug solution (Drugs were dissolved in breeding water), they were incubated in a 20 mm dish for 3 days. […] The zebrafish bodies were collected at 3 days post-fertilization (dpf). The blank controls were zebrafish WT embryos (n = 30) that were incubated in breeding water.
Using a cell strainer (100 μm, BD-Falcon, United States), zebrafish bodies (30 in each dish) were washed five times with deionized water. Zebrafish bodies were triturated in 100 μL of deionized water, and then they were homogenized for 1 min. Zebrafish homogenate (50 μL) and internal standard (IS) working solution (10 μL) were individually transferred into a 1.5-mL microcentrifuge tube. Then, 200 μL of 1% formic acid-methanol solution was added into the tube. The samples were vortexed for 20 s. To precipitate proteins, the samples were centrifuged at 10,800 g for 10 min. The resultant supernatant (10 μL) was injected into LC-MS/MS for analysis.
The LC-MS/MS technique was performed by combining a 20A LC (Shimadzu, Kyoto, Japan) and a 6500 Q-Trap mass spectrometer (AB Sciex, Foster City, CA, United States), which was equipped with an electrospray ionization (ESI) source. Moreover, LC separations were performed on a reversed-phase ACE C18 column (5 cm × 2.1 mm ID, 3 μm particle size, Advanced Chromatography Technologies, Aberdeen, United Kingdom), which was attached to a corresponding guard column (1 cm × 2.1 mm ID, 3 μm particle size; Advanced Chromatography Technologies, United Kingdom). The mobile phase comprised of 5 mM ammonium formate (pH = 3.5) (solvent A) and acetonitrile (solvent B). The composition of the gradient was as follows: 2% solvent B for the first 0.1 min; 3.5 min, 90% solvent B; 6.0 min, 90% solvent B; 6.1 min, 2% solvent B; and 10 min, 2% solvent B. Mass spectrometric analysis was performed in a positive mode. Ion-spray voltage was set at 5000 V, and source temperature was kept fixed at 500°C. Curtain gas, gas 1, and gas 2 were 25, 40, and 40 psi, respectively. Multiple reaction monitoring (MRM) scan was used for the quantification of 19 analytes. In this scan, we determined the most intense product ion (PI) of each analyte. The entrance potential (EP) of all analytes was 10 eV. For each ion transition, dwell time and pause time were set to 30 and 5 ms, respectively. The Analyst 1.6.2 software (AB Sciex, Foster City, CA, United States) was used to perform data acquisition and analysis.
Dose-internal concentration curves were constructed by linear regression analysis. The slope of each linear regression was defined as k-value for each drug. […] The entire data set was split into the training set and test set by a random index, which was operated by DS4.0 software. The training set percentage was set at 80.
Using the aforementioned method, we analyzed the internal concentrations of cephalosporins in zebrafish. […] The calibration samples and administration samples were processed in a timely manner. The internal concentration of each cephalosporin in the zebrafish was calculated by using the corresponding calibration curve (Table 2). […] Dose-internal concentration curves were constructed by linear regression analysis (Figure 1). For each drug, the slope of each linear regression was defined as k-value. This parameter was used to evaluate the absorption capacity of each drug.

Where [1] appears, read: zebrafish embryos exposed to 0.28 mM drug solution.
Setting [2] is: zebrafish embryos exposed to 1 mM drug solution.
The mark [3] stands for this setting: zebrafish embryos exposed to 2 mM drug solution.

As for `CO/N=C(\C(=O)N[C@@H]1C(=O)N2C(C(=O)O)=CCS[C@H]12)c1csc(N)n1` [Ceftizoxime], the “k-value (slope of the dose-internal concentration linear regression)” value was 7.1156. In addition, under setting [1], the Internal concentration stood at 1.17 mM × 10^-5. Also, the Internal concentration under setting [2] was 3.70 mM × 10^-5. Moreover, under setting [3], the Internal concentration was 13.15 mM × 10^-5. Also, the “k-value (slope of the dose-internal concentration linear regression)” value (listed as ceftizoxime) is above 5.
Regarding `CC(C)(O/N=C(\C(=O)N[C@@H]1C(=O)N2C(C(=O)[O-])=C(C[n+]3ccccc3)CS[C@H]12)c1csc(N)n1)C(=O)O` [Ceftazidime], the “k-value (slope of the dose-internal concentration linear regression)” value was 3.1702. Moreover, the Internal concentration under setting [1] was 0.00 mM × 10^-5. The Internal concentration under setting [2] was 2.45 mM × 10^-5. Further, under setting [3], the Internal concentration amounted to 5.47 mM × 10^-5. Further, the “k-value (slope of the dose-internal concentration linear regression)” value (listed as ceftazidime) is on record as below 5.
